The values that follow come from patent US10023518B2, “Substituted aromatic compounds and related method for the treatment of fibrosis” (PROMETIC BIOSCIENCES INC., priority 2013, dated 2018).

A word on the melting point: it is the temperature of the solid-liquid transition.

Data set [1] concerns α-SMA mRNA expression in TGF-β induced NRK-49F cells. Nature of the data set: Inhibition of α-SMA mRNA expression in TGF-β induced NRK-49F cells (quantitative real-time PCR). The data set is classed as cell-based, rat. Conditions: TGF-β 10 ng/ml. As for the experimental part:
In fibroblast, analysis was undertaken to determine the effect of preferred compounds of the present invention on TGF-β-induced α-SMA (marker of fibrosis) mRNA expression on normal rat kidney fibroblast (NRK-49F). NRK-49F were treated with TGF-β at a concentration of 10 ng/ml and became activated (myofibroblast) and expressed α-SMA. Expression of the profibrotic marker α-SMA was determined by quantitative real-time PCR.
For orientation: Real-time PCR tracks product formation cycle by cycle.

Data set [2] concerns collagen 1 mRNA expression in TGF-β induced HK-2 cells. Nature of the data set: Inhibition of collagen 1 mRNA expression in TGF-β induced HK-2 epithelial cells (quantitative real-time PCR). The class given is cell-based, human. Conditions: TGF-β 10 ng/mL; for expression of collagen in TGF-β-induced HK-2 cells (in words): concentration not given. As for the experimental part:
In epithelial cells, analysis was undertaken to determine the effect of compounds of the invention on TGF-β-induced collagen 1 (marker of fibrosis) on human proximal tubule epithelial cells (HK-2). HK-2 cells are immortalized proximal tubule epithelial cells, from human kidney, which were treated with TGF-β at a concentration of 10 ng/mL Expression of the profibrotic marker collagen 1 was determined by quantitative real-time PCR.

The test system of another data set is db/db diabetic mouse. Nature of the data set: Glomerular filtration rate in nephrectomised db/db diabetic mouse model of renal fibrosis. The data set is classed as in vivo. Conditions: db/db mice, right nephrectomy day 0, GFR on day 119. As to the method: FIG. 1 illustrates the glomerular filtration rate (GFR) function in db/db diabetic mouse compared to C57BL/6 mice (control mice), and in db/db diabetic mouse following oral treatment with Compound 1 at a dose of 10 and 50 mg/kg.
Typical experimental models of kidney fibrosis in mice or rats include db/db nephritic mice (models for diabetic nephropathy) and reflects the nephropathy observed in human. Evaluation of the effect of Compound 1 on diabetic nephropathy was performed in a db/db mouse model. Briefly, total nephrectomy of the right kidney was performed on day 0 and db/db mice (6-week old) were treated with vehicle or Compound 1 (10 and 50 mg/kg, oral once a day) from day 1 and glomerular filtration rate (GFR) was measured on day 119 as a direct measure of kidney function. FIG. 1 illustrates the reduction of GFR in db/db diabetic mouse compared to C57BL/6 mice (control mice), showing clearly the nephropathy associated with diabetes.

On to `CCCCCc1cc(CCCCC)cc(CC(=O)[O-])c1.[Na+]` [Compound 1, Sodium 2-[3,5-Dipentylphenyl]acetate], for which the melting point is 225 to 230 °C. Moreover, in data set [1] (0.01 mM compound), the “α-SMA expression in NRK-49F % of inhibition [mM]” value turned out to be 94% [0.01]. Further, the “Collagen expression in HK-2 cells % of inhibition [mM]” value in data set [2] (0.02 mM compound) came out at 100% [0.02]. For the same compound, the “expression of collagen in TGF-β-induced HK-2 cells (in words)” value in data set [2] is reported as “inhibits the expression of collagen”. Besides, the “glomerular filtration rate (GFR)” value with db/db diabetic mouse (10 mg/kg oral once a day from day 1) is recorded as “increases the GFR function of the kidney up to normal”. The “glomerular filtration rate (GFR)” value in the data set with db/db diabetic mouse (50 mg/kg oral once a day from day 1) is on record as “increases the GFR function of the kidney up to normal”.
Regarding `CCCCCCc1cc(CCCCCC)cc(CC(=O)[O-])c1.[Na+]` [Compound 2, Sodium Salt of 2-(3,5-Dihexylphenyl)acetic acid], in data set [1] (0.006 mM compound), the “α-SMA expression in NRK-49F % of inhibition [mM]” value came to 89% [0.006]. Further, the “Collagen expression in HK-2 cells % of inhibition [mM]” value in data set [2] (0.008 mM compound) stood at 100% [0.008]. In addition, in data set [2], the “expression of collagen in TGF-β-induced HK-2 cells (in words)” value is listed as “inhibits the expression of collagen”.
With `CCCCCc1cc(CCCCC)c(O)c(CC(=O)[O-])c1.[Na+]` [Compound 3, Sodium Salt of 2-(2-Hydroxy-3,5-dipentylphenyl)acetic acid], the “α-SMA expression in NRK-49F % of inhibition [mM]” value in data set [1] (0.0125 mM compound) came to 100% [0.0125].
On to `CCCCCc1cc(CC(=O)[O-])cc(CCCCC)c1O.[Na+]` [Compound 5, Sodium Salt of 2-(4-Hydroxy-3,5-dipentylphenyl)acetic acid], for which, in data set [1] (0.025 mM compound), the “α-SMA expression in NRK-49F % of inhibition [mM]” value is 41% [0.025].
